Target: T1, human apelin receptor (Homo sapiens, UniProt P35414)
T1 construct: expressed in transfected cells
T1 sequence (P35414 1-380): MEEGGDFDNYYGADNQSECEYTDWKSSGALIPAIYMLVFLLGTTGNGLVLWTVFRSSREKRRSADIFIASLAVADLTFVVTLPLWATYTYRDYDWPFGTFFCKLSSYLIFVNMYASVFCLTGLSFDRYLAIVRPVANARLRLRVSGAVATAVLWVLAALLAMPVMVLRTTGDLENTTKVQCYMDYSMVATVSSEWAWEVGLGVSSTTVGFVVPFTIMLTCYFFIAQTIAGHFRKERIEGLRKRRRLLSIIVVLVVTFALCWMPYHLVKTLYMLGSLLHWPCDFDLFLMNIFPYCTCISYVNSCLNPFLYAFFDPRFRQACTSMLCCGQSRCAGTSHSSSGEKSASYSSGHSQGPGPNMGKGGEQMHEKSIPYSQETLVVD
Assay: Determination of agonism on the human apelin receptor by a calcium fluorescence assay (FLIPR)
Assay type: cell-based
Conditions: HEK293 cells stably transfected with human apelin receptor and Giaq protein, Fluo-4 calcium fluorescence, read-out: EC50 (APJ agonism)
Excerpt: Determination of Agonism on the Human Apelin Receptor by a Calcium Fluorescence Assay (FLIPR)
The assay is based on the detection of intracellular calcium changes detected by the selective, calcium-chelating dye Fluo-4 (Molecular Probes). A large fluorescence intensity increase is observed upon calcium association with Fluo-4. The dye is delivered to the cell interior using an acetoxymethylester form of Fluo-4, where the intracellular esterase activity results in the charged species being released and trapped within the cytoplasm of the cell. […] By co-expressing the human apelin receptor and a promiscuous Giaq protein, agonism of the apelin receptor couples to phospholipase-C resulting in intracellular calcium mobilization.
The HEK293 cells were stably transfected with the human apelin receptor and the Giaq protein. Cells were selected and maintained in a log phase of growth at 37° and 5% CO2 in the Iscove's minimal essential medium, 10% fetal calf serum, 1× Penicillin-Streptomycin, 400 μg/mL G418. One day prior the assay, cells were passaged by accutase and plated at a density of 50,000 cells/well onto a 96-well plates with black border but clear bottom (Costar, cat#3904) in a final volume of 200 μl growth medium.
In order to load the cells the next day with the calcium-sensitive dye, growth medium was carefully replaced by dye solution (100 μl/well) containing Fluo-4 (4 μM) in basic measurement buffer (135 mM NaCl, 5 mM KCl, 1 mM magnesium sulphate, 5 mM glucose, 20 mM Hepes, 2.5 mM probenecid; adjusted to pH 7.4). Cells were incubated for 1 h at 37° C., and then washed 3× with buffer containing no dye. The washer was programmed to leave a remaining volume of 150 μl after the third wash in the plate.
During the dye-loading of the cells, a serial compound dilution was performed in a separate 96-well plate with overall 4× increased concentrations. Small aliquots of DMSO stock solutions of the compounds (10 mM in 100% DMSO were aliquoted into 150 μl buffer in the first rows of the 96-well plates, and then serially diluted by a factor of 1:3 transferring each time 30 μl to the next rows already containing 60 μl buffer. All compounds were tested in a least 7 concentrations, each condition was performed in triplicates. As comparator, we used freshly prepared apelin-13 solutions, for which also a concentration-response curve was determined at each measurement day. The compound plate was incubated for 10 min after the final dilutions steps at 37° C. before transferring the dye-loaded cell plate and the compound plate into a FLIPR Tetra reader (Molecular Devices). Measurement within this reader started by pipetting the agonist solution (50 μl) on the cell plate. Overall perform 60 reads were performed with an interval of 2 sec. The maximum of the fluorescence transient was used to calculate the agonistic response of the cells. In order to normalize this response, which may vary from plate to plate we set the maximum fluorescence achieved by 1 μM apelin-13 on this plate as 100%.
EC-50 values for apelin-13 and the apelin receptor compounds described in this patent were determined by standard algorithms using a specific software package.

| EC50 [µM] | SMILES |
| --- | --- |
| 0.152 | C[C@@H]1CCCC[C@H]1n1c(Cc2cccs2)nc2cc(C(=O)NC(CC(=O)O)CC3CCCCC3)ccc21 (single isomer, unassigned) [Example 456] |
| 1.46 | C[C@@H]1CCCC[C@H]1n1c(Cc2cccs2)nc2cc(C(=O)NC(CC(=O)O)CC3CCCCC3)ccc21 (single isomer, unassigned) [Example 457] |
| 0.124 | CCCC(CC(=O)O)NC(=O)c1ccc2c(c1)nc(Cc1cccs1)n2[C@@H]1CCCC[C@H]1C (single isomer, unassigned) [Example 458] |
| 0.122 | CCCCC(CC(=O)O)NC(=O)c1ccc2c(c1)nc(Cc1cccs1)n2[C@@H]1CCCC[C@H]1C (single isomer, unassigned) [Example 460] |
| 3.43 | CCCCC(CC(=O)O)NC(=O)c1ccc2c(c1)nc(Cc1cccs1)n2[C@@H]1CCCC[C@H]1C (single isomer, unassigned) [Example 461] |
| 0.137 | C[C@@H]1CCCC[C@H]1n1c(Cc2cccs2)nc2cc(C(=O)NC(CC(=O)O)C3CCCCC3)ccc21 (single isomer, unassigned) [Example 462] |
| 2.48 | C[C@@H]1CCCC[C@H]1n1c(Cc2cccs2)nc2cc(C(=O)NC(CC(=O)O)C3CCCCC3)ccc21 (single isomer, unassigned) [Example 463] |
| 0.126 | CCC(CC)n1c(Cc2cccs2)nc2cc(C(=O)NC(CC(C)C)C(C)(C)C(=O)O)ccc21 (single isomer, unassigned) [Example 464] |
| 0.948 | CCC(CC)n1c(Cc2cccs2)nc2cc(C(=O)NC(CC(C)C)C(C)(C)C(=O)O)ccc21 (single isomer, unassigned) [Example 465] |
| 4.72 | CCCC(NC(=O)c1ccc2c(c1)nc(Cc1cccs1)n2C(CC)CC)C(C)(C)C(=O)O (single isomer, unassigned) [Example 466] |
| 0.265 | CCCC(NC(=O)c1ccc2c(c1)nc(Cc1cccs1)n2C(CC)CC)C(C)(C)C(=O)O (single isomer, unassigned) [Example 467] |
| 0.719 | CCCCC(NC(=O)c1ccc2c(c1)nc(Cc1cccs1)n2C(CC)CC)C(C)(C)C(=O)O (single isomer, unassigned) [Example 468] |
| 0.06 | CCCCC(NC(=O)c1ccc2c(c1)nc(Cc1cccs1)n2C(CC)CC)C(C)(C)C(=O)O (single isomer, unassigned) [Example 469] |
| 0.235 | CCCC(CCO)NC(=O)c1ccc2c(c1)nc(Cc1cccs1)n2C(CC)CC (single isomer, unassigned) [Example 470] |
| 5.02 | CCCC(CCO)NC(=O)c1ccc2c(c1)nc(Cc1cccs1)n2C(CC)CC (single isomer, unassigned) [Example 471] |
| 0.359 | CCC(CC)n1c(Cc2cccs2)nc2cc(C(=O)NC3(C(=O)O)CCCCCC3)ccc21 [Example 1, 1-{[1-(1-Ethyl-propyl)-2-thiophen-2-ylmethyl-1H-benzoimidazole-5-carbonyl]-amino}-cycloheptanecarboxylic acid] |
| 20.1 | CCC(CC)n1c(Cc2ccco2)nc2cc(C(=O)NC(C)(Cc3ccccc3)C(=O)O)ccc21 (stereo not drawn) [Example 2, 2-{[1-(1-Ethyl-propyl)-2-furan-2-ylmethyl-1H-benzoimidazole-5-carbonyl]-amino}-2-methyl-3-phenyl-propionic acid] |
| 1.2 | CCC(CC)n1c(CC2CCCC2)nc2cc(C(=O)N[C@@H](CC3CCCCC3)C(=O)O)ccc21 [Example 3, (S)-3-Cyclohexyl-2-{[2-cyclopentylmethyl-1-(1-ethyl-propyl)-1H-benzoimidazole-5-carbonyl]-amino}-propionic acid] |
| 16.8 | CCC(CC)n1c(Cc2cccs2)nc2cc(C(=O)NC(C)(Cc3ccccc3)C(=O)O)ccc21 (stereo not drawn) [Example 4, 2-{[1-(1-Ethyl-propyl)-2-thiophen-2-ylmethyl-1H-benzoimidazole-5-carbonyl]-amino}-2-methyl-3-phenyl-propionic acid] |
| 9.87 | CCC(CC)n1c(Cc2cccs2)nc2cc(C(=O)NC(C)(C(=O)O)C(C)C)ccc21 (stereo not drawn) [Example 5, 2-{[1-(1-Ethyl-propyl)-2-thiophen-2-ylmethyl-1H-benzoimidazole-5-carbonyl]-amino}-2,3-dimethyl-butyric acid] |
| 3.82 | CCC(CC)n1c(Cc2cccs2)nc2cc(C(=O)NC3(C(=O)O)CCCC3)ccc21 [Example 6, 1-{[1-(1-Ethyl-propyl)-2-thiophen-2-ylmethyl-1H-benzoimidazole-5-carbonyl]-amino}-cyclopentanecarboxylic acid] |
| 44.3 | CCC(CC)n1c(Cc2cccs2)nc2cc(C(=O)NC(CC)(C(=O)O)c3ccccc3)ccc21 (stereo not drawn) [Example 7, 2-{[1-(1-Ethyl-propyl)-2-thiophen-2-ylmethyl-1H-benzoimidazole-5-carbonyl]-amino}-2-phenyl-butyric acid] |
| 0.107 | CCC(CC)n1c(Cc2ccco2)nc2cc(C(=O)N[C@@H](CC3CCCCC3)C(=O)O)ccc21 [Example 8, (S)-3-Cyclohexyl-2-{[1-(1-ethyl-propyl)-2-furan-2-ylmethyl-1H-benzoimidazole-5-carbonyl]-amino}-propionic acid] |
| 0.585 | CCC(CC)n1c(Cc2ccco2)nc2cc(C(=O)N[C@H](CC3CCCCC3)C(=O)O)ccc21 [Example 9, (R)-3-Cyclohexyl-2-{[1-(1-ethyl-propyl)-2-furan-2-ylmethyl-1H-benzoimidazole-5-carbonyl]-amino}-propionic acid] |
| 1.7 | CCC(CC)n1c(CC2CCCC2)nc2cc(C(=O)N[C@H](CC3CCCCC3)C(=O)O)ccc21 [Example 10, (R)-3-Cyclohexyl-2-[{2-cyclopentylmethyl-1-(1-ethyl-propyl)-1H-benzoimidazole-5-carbonyl]-amino}-propionic acid] |
| 0.065 | CCC(CC)n1c(Cc2cccs2)nc2cc(C(=O)NC(CC3CCCC3)C(=O)O)ccc21 (stereo not drawn) [Example 11, 3-Cyclopentyl-2-{[1-(1-ethyl-propyl)-2-thiophen-2-ylmethyl-1H-benzoimidazole-5-carbonyl]-amino}-propionic acid] |
| 0.818 | CCC(CC)n1c(Cc2cccs2)nc2cc(C(=O)NC(C)(CC(C)C)C(=O)O)ccc21 (stereo not drawn) [Example 12, 2-{[1-(1-Ethyl-propyl)-2-thiophen-2-ylmethyl-1H-benzoimidazole-5-carbonyl]-amino}-2,4-dimethyl-pentanoic acid] |
| 0.535 | CCC(CC)n1c(Cc2ccco2)nc2cc(C(=O)NC(C)(CC(C)C)C(=O)O)ccc21 (stereo not drawn) [Example 13, 2-{[1-(1-Ethyl-propyl)-2-furan-2-ylmethyl-1H-benzoimidazole-5-carbonyl]-amino}-2,4-dimethyl-pentanoic acid] |
| 1.34 | CCC(CC)n1c(Cc2ccco2)nc2cc(C(=O)NC(C)(CCSC)C(=O)O)ccc21 (stereo not drawn) [Example 14, 2-{[1-(1-Ethyl-propyl)-2-furan-2-ylmethyl-1H-benzoimidazole-5-carbonyl]-amino}-2-methyl-4-methylsulfanyl-butyric acid] |
| 0.254 | CC1CCCCC1n1c(Cc2cccs2)nc2cc(C(=O)N[C@@H](CC3CCCCC3)C(=O)O)ccc21 (stereo partly drawn) [Example 15, (S)-3-Cyclohexyl-2-{[1-(2-methyl-cyclohexyl)-2-thiophen-2-ylmethyl-1H-benzoimidazole-5-carbonyl]-amino}-propionic acid] |
